Test results: article PMC9137037 (Frontiers in Oncology, 2022)
Where two headings read alike, the source gives them in different places. Where no end group is shown, it is not given here.

Assay: Toxicokinetics of APi2568 in monkey plasma (UHPLC-MS/MS)
Type: in vivo, cynomolgus monkey
Details: for Cmax: UHPLC-MS/MS; for accumulation ratio (RA): TK profiles on days 1 and 43
Method: The non-human primate studies were carried out by the Charles River Laboratories (Ashland, OH USA). All the cynomolgus monkeys (Macaca fascicularis of Chinese origin) were obtained from Charles River Laboratories (Houston, TX, USA). In brief, the animals were approximately 2–4 years old and at the body weight between 2.2 and 3.1 kg at the initial dosing. The animals were kept at the temperature between 19°C and 24°C, humidity 30%–70%, and with 12 h light and 12 h dark light cycle. The Good manufacturing practice (GMP)-manufactured vaccine was used in the non-human primate study. […] Similar to mouse and dog dosing preparation, after the emulsion was prepared, a drop test was performed on each time of dosing to confirm that the emulsion had been prepared properly. […] The dose volume was split approximately equally across two different sites; 0.5 ml of the dose was intramuscularly (IM) injected into the right posterior lateral thigh, the left dosing was injected into the left site. All the animals’ body weights were monitored weekly after receiving. After each immunization, the animal body temperature was tested 6 and 24 h post each immunization. […] The animal bleed were collected before each time of immunization to monitor the antibody titers. There were two sets of non-human primate studies conducted. The first set of monkey study No.00213515 had 24 monkeys, 12 males, and 12 females divided into 4 groups: vehicle control, low dose 0.5 mg, medium dose 2 mg, and high dose 5 mg. There were 16 monkeys (8 males and 8 females) in the second set of monkey study No. 00213519. The monkeys in the four groups were vaccinated as follows: vehicle control, low dose 25 μg, medium dose 100 μg, and high dose 250 μg.
For the determination of TK parameters, blood samples were collected at various times after dosing analyzed using a validated UHPLC-MS/MS (ultra-high-performance liquid chromatography with tandem mass spectrometry) method, for the quantification of APi2568 in monkey plasma.

[1] = female, 2 mg/dose IM as PD1-Vaxx, day 43, mean
[2] = female, 5 mg/dose IM as PD1-Vaxx, day 1
[3] = female, 5 mg/dose IM as PD1-Vaxx, day 43, mean
[4] = male, 0.5 mg/dose IM as PD1-Vaxx, day 43, mean
[5] = male, 2 mg/dose IM as PD1-Vaxx, day 43, mean
[6] = male, 5 mg/dose IM as PD1-Vaxx, day 1
[7] = male, 5 mg/dose IM as PD1-Vaxx, day 43, mean

KLLSLIKGVIVHRLEGVEGPSLGAISLAPKAQIKESLRAEL [MVF-PD-1(92-110)]
plasma concentrations relative to the LLOQ (day 43, 0.5 mg/dose group (both sexes) and 2 mg/dose female monkeys): ≤ 6 fold
T1/2 mean value (day 43, 2 and 5 mg/dose male monkeys and a single 5 mg/dose female monkey): approximately 13 h
Cmax/D (female, 0.5 mg/dose IM as PD1-Vaxx, day 43, mean): 17.6 (ng/ml)/(mg/dose)
AUC(0-t)/D [1]: 47.3 (ngh/ml)/(mg/dose)
Cmax/D [1]: 6.92 (ng/ml)/(mg/dose)
Tlast [1]: 8 h
AUC(0-t)/D [2]: 3.79 (ngh/ml)/(mg/dose)
Cmax/D [2]: 0.954 (ng/ml)/(mg/dose)
Tlast [2]: 4 h
AUC(0-t) (female, 5 mg/dose IM as PD1-Vaxx, day 1, AUC calculable in 1 monkey/sex): 18.9 ng·h/mL
T1/2 (female, 5 mg/dose IM as PD1-Vaxx, day 43, calculable for a single female monkey): 19.6 h
AUC(0-t)/D [3]: 266 (ngh/ml)/(mg/dose)
Cmax/D [3]: 31.9 (ng/ml)/(mg/dose)
Tlast [3]: 34 h
Tmax [3]: 1 h
Cmax (female, cynomolgus monkey, plasma, im, 0.5 mg/dose, female, 0.5 mg/dose IM as PD1-Vaxx, day 43, plasma, mean (generally n = 3)): 8.81 ng/mL
Tmax (female, cynomolgus monkey, plasma, im, 0.5 mg/dose, read-out: Tmax): 2 h
AUC(0-t) (female, cynomolgus monkey, plasma, im, 2 mg/dose, female, 2 mg/dose IM as PD1-Vaxx, day 43, mean, one female had significantly lower exposure, read-out: AUC(0-t)): 94.5 ng·h/mL
Cmax (female, cynomolgus monkey, plasma, im, 2 mg/dose, female, 2 mg/dose IM as PD1-Vaxx, day 43, plasma, mean (generally n = 3)): 13.8 ng/mL
Tmax (female, cynomolgus monkey, plasma, im, 2 mg/dose, read-out: Tmax): 4 h
Cmax (female, cynomolgus monkey, plasma, im, 5 mg/dose, female, 5 mg/dose IM as PD1-Vaxx, day 1, plasma, mean as printed): 4.77 ng/mL
AUC(0-t) (female, cynomolgus monkey, plasma, im, 5 mg/dose, female, 5 mg/dose IM as PD1-Vaxx, day 43, mean, read-out: AUC(0-t)): 1330 ng·h/mL
Cmax (female, cynomolgus monkey, plasma, im, 5 mg/dose, female, 5 mg/dose IM as PD1-Vaxx, day 43, plasma, mean (generally n = 3)): 160 ng/mL
Tmax (female, cynomolgus monkey, plasma, im, 5 mg/dose, read-out: Tmax): 1 h
AUC(0-t)/D [4]: 125 (ngh/ml)/(mg/dose)
Tlast [4]: 8 h
AUC(0-t)/D [5]: 247 (ngh/ml)/(mg/dose)
Tlast [5]: 24 h
AUC(0-t)/D [6]: 30.1 (ngh/ml)/(mg/dose)
Cmax/D [6]: 2.01 (ng/ml)/(mg/dose)
Tlast [6]: 24 h
AUC(0-t)/D [7]: 693 (ngh/ml)/(mg/dose)
Cmax/D [7]: 40.5 (ng/ml)/(mg/dose)
Tlast [7]: 48 h
Tmax [7]: 1 h
AUC(0-t) (male, cynomolgus monkey, plasma, im, 0.5 mg/dose, male, 0.5 mg/dose IM as PD1-Vaxx, day 43, mean, read-out: AUC(0-t)): 62.3 ng·h/mL
Tmax (male, cynomolgus monkey, plasma, im, 0.5 mg/dose, read-out: Tmax): 1 h
half-life (male, cynomolgus monkey, plasma, im, 2 mg/dose): 13.1 h
AUC(0-t) (male, cynomolgus monkey, plasma, im, 2 mg/dose, male, 2 mg/dose IM as PD1-Vaxx, day 43, mean, read-out: AUC(0-t)): 494 ng·h/mL
Tmax (male, cynomolgus monkey, plasma, im, 2 mg/dose, read-out: Tmax): 1 h
half-life (male, cynomolgus monkey, plasma, im, 5 mg/dose): 12.7 h
AUC(0-t) (male, cynomolgus monkey, plasma, im, 5 mg/dose, male, 5 mg/dose IM as PD1-Vaxx, day 1, AUC calculable in 1 monkey/sex, read-out: AUC(0-t)): 151 ng·h/mL
Cmax (male, cynomolgus monkey, plasma, im, 5 mg/dose, male, 5 mg/dose IM as PD1-Vaxx, day 1, plasma, mean as printed): 10.1 ng/mL
AUC(0-t) (male, cynomolgus monkey, plasma, im, 5 mg/dose, male, 5 mg/dose IM as PD1-Vaxx, day 43, mean, read-out: AUC(0-t)): 3460 ng·h/mL
Cmax (male, cynomolgus monkey, plasma, im, 5 mg/dose, male, 5 mg/dose IM as PD1-Vaxx, day 43, plasma, mean (generally n = 3)): 202 ng/mL
Tmax (male, cynomolgus monkey, plasma, im, 5 mg/dose, read-out: Tmax): 2 h
accumulation ratio (RA) (single female monkey, 5 mg/dose): 121
accumulation ratio (RA) (single male monkey, 5 mg/dose): 16.3
